Laboratory results from the NIST ThermoML archive (doi:10.1016/j.jct.2012.03.034).

Experiment: xn = mol fraction of the nth substance listed
Conditions: 101 kPa, Liquid; for speed of sound: Linear variable-path acoustic interferometer; for mass density: Vibrating tube method; for viscosity: dual vibrating plate viscometer, AandD Co. Ltd Model SV-10

CC[NH+](CC)CC.O=S(=O)([O-])O [triethylammonium hydrogen sulfate] + CN1CCCC1=O
Conditions	mass density [kg/m3]	speed of sound [m/s]	viscosity [mPa·s]
298.15 K, x1 = 0.0115	1032.8	1575	3.39
298.15 K, x1 = 0.0234	1038.22	1585	4.63
298.15 K, x1 = 0.0632	1050.09	1610	4.46
298.15 K, x1 = 0.0927	1059.1	1627	4.81
298.15 K, x1 = 0.1387	1070.98	1658	4.99
298.15 K, x1 = 0.2259	1088.61	1710	8.89
298.15 K, x1 = 0.2631	1094.64	1734	19.46
298.15 K, x1 = 0.3261	1103.78	1770	40.98
298.15 K, x1 = 0.4478	1116.87	1823	96.22
298.15 K, x1 = 0.5947	1127.01	1871	163.18
298.15 K, x1 = 0.7717	1135	1893	229.32
298.15 K, x1 = 0.9017	1139.74	1885	245.82
298.15 K, x1 = 0.9497	1141.23	1879	242.86
298.15 K, x1 = 1	1142.89	1874	235
303.15 K, x1 = 0.0115	1029.6	1559	1.09
303.15 K, x1 = 0.0234	1033.96	1569	1.26
303.15 K, x1 = 0.0632	1046.49	1594	1.97
303.15 K, x1 = 0.0927	1054.51	1613	1.09
303.15 K, x1 = 0.1387	1066.39	1646	2.15
303.15 K, x1 = 0.2259	1084.19	1699	4.28
303.15 K, x1 = 0.2631	1090.49	1724	8.71
303.15 K, x1 = 0.3261	1099.54	1761	24.33
303.15 K, x1 = 0.4478	1112.6	1818	66.28
303.15 K, x1 = 0.5947	1123.51	1867	119.65
303.15 K, x1 = 0.7717	1132.09	1891	168.61
303.15 K, x1 = 0.9017	1137.34	1886	175.33
303.15 K, x1 = 0.9497	1139.47	1881	168.86
303.15 K, x1 = 1	1141.83	1871	153
308.15 K, x1 = 0.0115	1024.16	1541	1.08
308.15 K, x1 = 0.0234	1028.44	1552	0.73
308.15 K, x1 = 0.0632	1040.72	1574	–
308.15 K, x1 = 0.0927	1048.71	1595	–
308.15 K, x1 = 0.1387	1060.66	1628	–
308.15 K, x1 = 0.2259	1078.74	1682	–
308.15 K, x1 = 0.2631	1085.15	1707	7.75
308.15 K, x1 = 0.3261	1094.3	1746	23.71
308.15 K, x1 = 0.4478	1107.95	1806	66.53
308.15 K, x1 = 0.5947	1119.05	1862	116.6
308.15 K, x1 = 0.7717	1128.8	1892	161.59
308.15 K, x1 = 0.9017	1135.26	1887	165.14
308.15 K, x1 = 0.9497	1137.73	1880	156.95
308.15 K, x1 = 1	1140.72	1866	138
313.15 K, x1 = 0.0115	1019.77	1535	1.97
313.15 K, x1 = 0.0234	1023.04	1547	0.71
313.15 K, x1 = 0.0632	1034.66	1573	0.73
313.15 K, x1 = 0.0927	1043.09	1592	0.2
313.15 K, x1 = 0.1387	1055.07	1624	–
313.15 K, x1 = 0.2259	1072.51	1681	1.97
313.15 K, x1 = 0.2631	1079.29	1706	7.8
313.15 K, x1 = 0.3261	1088.65	1748	22.1
313.15 K, x1 = 0.4478	1102.48	1809	60.67
313.15 K, x1 = 0.5947	1114.67	1865	104.9
313.15 K, x1 = 0.7717	1125.81	1894	142.04
313.15 K, x1 = 0.9017	1133.51	1884	141.04
313.15 K, x1 = 0.9497	1136.49	1878	131.02
313.15 K, x1 = 1	1140.02	1859	108

CC(=O)[O-].CC[NH2+]CC [diethylammonium acetate] + CN1CCCC1=O
Conditions	mass density [kg/m3]	speed of sound [m/s]	viscosity [mPa·s]
298.15 K, x1 = 0.0234	1026.53	1570	1.83
298.15 K, x1 = 0.0473	1027.19	1570	1.82
298.15 K, x1 = 0.1188	1028.41	1576	2.26
298.15 K, x1 = 0.1668	1029.09	1575	2.67
298.15 K, x1 = 0.2393	1029.73	1563	3.57
298.15 K, x1 = 0.3616	1030.18	1527	5.62
298.15 K, x1 = 0.411	1030.19	1510	6.49
298.15 K, x1 = 0.4856	1029.95	1487	7.94
298.15 K, x1 = 0.6115	1028.88	1458	10.53
298.15 K, x1 = 0.7391	1027.18	1454	13.14
298.15 K, x1 = 0.8686	1024.96	1486	15.33
298.15 K, x1 = 0.9493	1023.14	1539	16.26
298.15 K, x1 = 0.9758	1022.3	1562	16.41
298.15 K, x1 = 1	1021.41	1608	16.36
303.15 K, x1 = 0.0234	1024.14	1555	1.6
303.15 K, x1 = 0.0473	1024.34	1557	1.66
303.15 K, x1 = 0.1188	1025.34	1563	2.03
303.15 K, x1 = 0.1668	1025.85	1565	2.34
303.15 K, x1 = 0.2393	1026.2	1556	3.09
303.15 K, x1 = 0.3616	1026.29	1523	4.89
303.15 K, x1 = 0.411	1026.22	1508	5.6
303.15 K, x1 = 0.4856	1025.78	1488	6.88
303.15 K, x1 = 0.6115	1024.47	1460	9.13
303.15 K, x1 = 0.7391	1022.47	1458	11.3
303.15 K, x1 = 0.8686	1019.99	1494	13.05
303.15 K, x1 = 0.9493	1018.04	1552	13.74
303.15 K, x1 = 0.9758	1017.29	1574	13.82
303.15 K, x1 = 1	1016.52	1612	13.64
308.15 K, x1 = 0.0234	1019.65	1531	1.48
308.15 K, x1 = 0.0473	1019.91	1536	1.67
308.15 K, x1 = 0.1188	1020.3	1546	1.87
308.15 K, x1 = 0.1668	1020.67	1548	2.15
308.15 K, x1 = 0.2393	1020.89	1542	2.84
308.15 K, x1 = 0.3616	1020.97	1514	4.45
308.15 K, x1 = 0.411	1020.77	1502	5.1
308.15 K, x1 = 0.4856	1020.41	1484	6.24
308.15 K, x1 = 0.6115	1019.23	1462	8.23
308.15 K, x1 = 0.7391	1017.4	1463	10.18
308.15 K, x1 = 0.8686	1015.03	1501	11.58
308.15 K, x1 = 0.9493	1013.14	1555	12.1
308.15 K, x1 = 0.9758	1012.47	1580	12.16
308.15 K, x1 = 1	1011.87	1616	11.83
313.15 K, x1 = 0.0234	1014.97	1527	1.37
313.15 K, x1 = 0.0473	1015.32	1532	1.44
313.15 K, x1 = 0.1188	1015.77	1544	1.75
313.15 K, x1 = 0.1668	1016.03	1547	1.98
313.15 K, x1 = 0.2393	1016.53	1543	2.61
313.15 K, x1 = 0.3616	1016.79	1520	4.05
313.15 K, x1 = 0.411	1016.77	1509	4.66
313.15 K, x1 = 0.4856	1016.52	1494	5.67
313.15 K, x1 = 0.6115	1015.76	1473	7.42
313.15 K, x1 = 0.7391	1014.43	1477	9.06
313.15 K, x1 = 0.8686	1012.59	1515	10.26
313.15 K, x1 = 0.9493	1010.98	1567	10.62
313.15 K, x1 = 0.9758	1010.43	1592	10.57
313.15 K, x1 = 1	1010.08	1617	10.02
